Results reported in PMC12057359, “Inhibitory effect of copper chelators on the budding in Candida albicans” (Antimicrobial Agents and Chemotherapy, 2025).
Where a name gives a salt, the structure may show the parent alone. Read-outs that look alike come from different tables or passages of the source. Numbered stars: 1 amine (or outer) side, 2 acyl side, 3 side chain; on linkers, the order of the positions; unused ones are H or OH. Bridge positions count the residues as written; N and C are the ends. Square brackets hold non-standard residues; d marks the D form. Peptide text beside a SMILES is read from it. * marks the point of attachment. hTyr(3S-OH,4S-OH,3'-OSO3H) = N[C@H](C(=O)O)[C@H](O)[C@@H](O)c1ccc(O)c(OS(=O)(=O)O)c1; Orn(4R-OH,5R-OH) = O=C([C@H](C[C@@H](O)[C@@H](O)N[*:3])N[*:1])[*:2]; Pro(3S-OH,4S-Me) = C[C@H]1CN[C@H](C(=O)O)[C@H]1O; X1 = CCCCCOc1ccc(-c2cc(-c3ccc(C(=O)*)cc3)no2)cc1; Gln(3R-OH) = NC(=O)C[C@@H](O)[C@H](N)C(=O)O; Hyp = O=C(O)[C@@H]1C[C@@H](O)CN1

Assays:
C. albicans JCM1542 [1] = assay: iHOPE antimicrobial microdilution assay (turbidity OD600); format: cell-based, Candida albicans
[2] = iHOPE in vitro cytotoxicity assessment (Cell Count Reagent SF); format: cell-based, human; settings: human
Procedure: (§1) The method for in vitro cytotoxicity assessment using Cell Count Reagent SF (Nacalai Tesque) has been described previously ([15]). […] Test compounds were added to the culture medium, and then the plates were incubated at 28°C for 24 h.

C. tropicalis JCM1541 = assay: iHOPE antimicrobial microdilution assay (turbidity OD600); format: cell-based; settings: Candida tropicalis, read-out: IC50 against C. tropicalis JCM1541
C. auris VPCI673 = assay: as above; format: cell-based, Candida auris; settings: Candidozyma auris, read-out: IC50 against C. auris VPCI673
E. coli HO-141 = assay: iHOPE antimicrobial microdilution assay; format: cell-based, Escherichia coli
A. fumigatus Af293 = assay: iHOPE antimicrobial microdilution assay; format: cell-based, Aspergillus fumigatus
C. albicans JCM1542 [3] = format: cell-based, Candida albicans
C. glabrata JCM3761 = assay: iHOPE antimicrobial microdilution assay (turbidity OD600); format: cell-based, Candida glabrata; settings: Nakaseomyces glabratus, read-out: IC50 against C. glabrata JCM3761
P. oryzae Kita-1 = assay: microbe, parasite or virus in culture; format: cell-based, Pyricularia oryzae
S. aureus 209P = assay: iHOPE antimicrobial microdilution assay; format: cell-based, Staphylococcus aureus; settings: read-out: IC50 against S. aureus 209P
C. auris Ci6684 = assay: iHOPE antimicrobial microdilution assay (turbidity OD600); format: cell-based, Candida auris; settings: Candidozyma auris, read-out: IC50 against C. auris Ci6684
HL-60 RCB0041 = assay: iHOPE in vitro cytotoxicity assessment (Cell Count Reagent SF); format: cell-based, human
Procedure: as §1

[4] = Candida albicans, JCM1542; MOPS-RPMI medium, 28°C, 24 h, OD600; standard deviation in parentheses, n = 3; read-out: IC50 against C. albicans JCM1542
[5] = SD in parentheses, n = 3, read-out: IC50 against HL-60 RCB0041 (cytotoxicity)
[6] = JCM1541, MOPS-RPMI medium, 24 h, SD in parentheses, n = 3
[7] = VPCI673, MOPS-RPMI medium, 24 h, SD in parentheses, n = 3
[8] = Escherichia coli, HO141, SD in parentheses, n = 3, read-out: IC50 against E. coli HO-141
[9] = Aspergillus fumigatus, AF293, SD in parentheses, n = 3, read-out: IC50 against A. fumigatus Af293
[10] = JCM3761, MOPS-RPMI medium, 24 h, SD in parentheses, n = 3
[11] = Pyricularia oryzae, KITA1, read-out: IC50 against P. oryzae Kita-1
[12] = Staphylococcus aureus, 209P, SD in parentheses, n = 3
[13] = CI6684, MOPS-RPMI medium, 24 h, SD in parentheses, n = 3
[14] = Candida albicans, JCM1542, 24 h, read-out: IC50 against C. albicans JCM1542
[15] = MOPS-RPMI medium, 28°C, 24 h, OD600; standard deviation in parentheses, n = 3; read-out: IC50 against C. albicans JCM1542
[16] = C. albicans JCM1542, MOPS-RPMI medium, 24 h

For `[C-]#[N+][C@@H](C)CC(=O)N[C@H]1CC[C@H](NC(=O)C[C@H](C)[N+]#[C-])CC1` [16b], the IC50 (C. albicans JCM1542 [1]; [4]) was 0.61 µM and the IC50 [2, 5] was greater than 30 µM.

In the case of `C[C@@H]1[C@H](O)[C@@H](C)/C=C/C=C/C=C/C=C/C=C/C=C/C=C/[C@H](O[C@@H]2O[C@H](C)[C@@H](O)[C@H](N)[C@@H]2O)C[C@@H]2O[C@](O)(C[C@@H](O)C[C@@H](O)[C@H](O)CC[C@@H](O)C[C@@H](O)CC(=O)O[C@H]1C)C[C@H](O)[C@H]2C(=O)O` [Amphotericin B, amphotericin B], the IC50 (C. tropicalis JCM1541; [6]) is reported as 0.046 µM, the IC50 (C. auris VPCI673; [7]) is reported as 0.44 µM and the IC50 (E. coli HO-141; [8]) is reported as greater than 30 µM. The IC50 (A. fumigatus Af293; [9]) was 0.21 µM, the “morphological change induced in C. albicans” value (“morphological change induced” for short) (C. albicans JCM1542 [3]) was “yeast-rich morphology” and the IC50 (C. glabrata JCM3761; [10]) was 0.063 µM. It also gave an IC50 (P. oryzae Kita-1; [11]) of 0.16 µM, an IC50 (S. aureus 209P; [12]) greater than 30 µM and an IC50 (C. albicans JCM1542 [1]; [4]) of 0.039 µM. It also gave an IC50 (C. auris Ci6684; [13]) of 0.41 µM and an IC50 [2] of 17 µM.

With `CCCCCC[C@H]1C(=O)O[C@H](C)[C@H](NC(=O)c2cccc(NC=O)c2O)C(=O)O[C@@H](C)[C@@H]1OC(=O)CC(C)C` [Antimycin A, antimycin A] the IC50 (C. albicans JCM1542 [1]; [14]) was 0.035 µM.

In the case of `[Cl][Cu][Cl]` [Cu^2+, copper chloride (II)], the IC50 (E. coli HO-141; SD in parentheses, n = 3, read-out: IC50 against E. coli HO-141) is reported as greater than 30 µM, the IC50 (A. fumigatus Af293; SD in parentheses, n = 3, read-out: IC50 against A. fumigatus Af293) is reported as greater than 30 µM and the “concentration leading to earlier budding of C. albicans” value (C. albicans JCM1542 [3]) is reported as no less than 1 µM. For the same compound, the IC50 (P. oryzae Kita-1; SD in parentheses, n = 3, read-out: IC50 against P. oryzae Kita-1) was greater than 30 µM, the IC50 (S. aureus 209P; SD in parentheses, n = 3) was greater than 30 µM and the IC50 (C. albicans JCM1542 [1]; [15]) was greater than 30 µM. It also gave an IC50 (HL-60 RCB0041) greater than 30 µM.

With `CC(C)(S)[C@@H](N)C(=O)O` [D-Penicillamine, D-penicillamine] the IC50 (C. tropicalis JCM1541; [6]) was greater than 1000 µM, the IC50 (C. auris VPCI673; [7]) was greater than 1000 µM and the IC50 (E. coli HO-141; [8]) was greater than 1000 µM. The IC50 (A. fumigatus Af293; [9]) was greater than 1000 µM, the “morphological change induced” value (C. albicans JCM1542 [3]; [16]) was “morphological changes similar to those observed with SF2768” and the IC50 (C. glabrata JCM3761; [10]) was 270 µM. The IC50 (P. oryzae Kita-1; [11]) was greater than 1000 µM, the IC50 (S. aureus 209P; [12]) was greater than 1000 µM and the IC50 (C. auris Ci6684; [13]) was greater than 1000 µM. For the same compound, the IC50 [2] was greater than 1000 µM.

`OC(Cn1cncn1)(Cn1cncn1)c1ccc(F)cc1F` [Fluconazole, fluconazole] showed an IC50 (C. tropicalis JCM1541; [6]) of 0.4 µM, an IC50 (C. auris VPCI673; [7]) greater than 30 µM and an IC50 (E. coli HO-141; [8]) greater than 30 µM. For the same compound, the IC50 (A. fumigatus Af293; [9]) was greater than 30 µM, the “morphological change induced” value (C. albicans JCM1542 [3]) was “yeast-rich morphology” and the IC50 (C. glabrata JCM3761; [10]) was 0.69 µM. The IC50 (P. oryzae Kita-1; [11]) was greater than 30 µM, the IC50 (S. aureus 209P; [12]) was greater than 30 µM and the IC50 (C. albicans JCM1542 [1]; [4]) was 0.39 µM. For the same compound, the IC50 (C. auris Ci6684; [13]) was greater than 30 µM and the IC50 ([2]; HL-60 RCB0041 cells (promyelocytic leukemia cell line), SD in parentheses, n = 3, read-out: IC50 against HL-60 RCB0041 (cytotoxicity)) was greater than 30 µM.

Work on `OO` [H2O2] yielded an IC50 (C. albicans JCM1542 [1]; [15]) of 550 µM.

`CCCCCOc1ccc(-c2cc(-c3ccc(C(=O)N[C@H]4C[C@@H](O)[C@@H](O)NC(=O)[C@@H]5[C@@H](O)[C@@H](C)CN5C(=O)[C@H]([C@H](O)CC(N)=O)NC(=O)[C@H]([C@H](O)[C@@H](O)c5ccc(O)c(OS(=O)(=O)O)c5)NC(=O)[C@@H]5C[C@@H](O)CN5C(=O)[C@H]([C@@H](C)O)NC4=O)cc3)no2)cc1` [Micafungin, micafungin] (X1-[Orn(4R-OH,5R-OH)]T[Hyp][hTyr(3S-OH,4S-OH,3'-OSO3H)][Gln(3R-OH)][Pro(3S-OH,4S-Me)]; lactam 1-C) gave an IC50 (C. tropicalis JCM1541; JCM1541, 24 h) of 0.0054 µM, an IC50 (C. auris VPCI673; VPCI673, 24 h) of 0.027 µM and an IC50 (E. coli HO-141; Escherichia coli, HO141, read-out: IC50 against E. coli HO-141) greater than 30 µM. For the same compound, the IC50 (A. fumigatus Af293; Aspergillus fumigatus, AF293, read-out: IC50 against A. fumigatus Af293) was 0.004 µM, the “morphological change induced” value (C. albicans JCM1542 [3]; [16]) was “yeast-rich morphology” and the IC50 (C. glabrata JCM3761; JCM3761, 24 h) was 0.0049 µM. The IC50 (P. oryzae Kita-1; [11]) was greater than 30 µM, the IC50 (S. aureus 209P; Staphylococcus aureus, 209P) was greater than 30 µM and the IC50 (C. albicans JCM1542 [1]; [14]) was 0.0033 µM. The IC50 (C. auris Ci6684; CI6684, 24 h) was 0.029 µM and the IC50 [2, 5] was greater than 30 µM.

`C/C=C(\C)[C@H](O)[C@H](C)/C=C(C)/C=C/C/C(C)=C/Cc1nc(OC)c(OC)c(O)c1C` [Piericidin A, piericidin A] showed an IC50 (C. albicans JCM1542 [1]; [14]) of 12 µM.

Work on `NCCNCCNCCN` [Trientine, trientine hydrochloride] yielded an IC50 (C. tropicalis JCM1541; [6]) of 18 µM, an IC50 (C. auris VPCI673; [7]) greater than 100 µM and an IC50 (E. coli HO-141; [8]) greater than 100 µM. For the same compound, the IC50 (A. fumigatus Af293; [9]) was 8.1 µM, the “morphological change induced” value (C. albicans JCM1542 [3]) was “morphological changes similar to those observed with SF2768” and the IC50 (C. glabrata JCM3761; [10]) was 0.12 µM. It also gave an IC50 (P. oryzae Kita-1; [11]) greater than 100 µM, an IC50 (S. aureus 209P; [12]) greater than 100 µM and an IC50 (C. albicans JCM1542 [1]; [4]) of 0.57 µM. The IC50 (C. auris Ci6684; [13]) was greater than 100 µM and the IC50 [2] was greater than 100 µM.

With `COc1cc(-c2ccccn2)nc(/C=N/O)c1SC` [collismycin] the “morphological change induced” value (C. albicans JCM1542 [3]; [16]) was “elongated, but not as long as SF2768, and tortuous hyphae”.

In the case of `C/C=C/C(=O)NCc1ccc(N)cc1` [compound 9], the “antifungal activity / inhibition of budding against C. albicans (in words)” value (C. albicans JCM1542 [1]; C. albicans JCM1542) is reported as “did not mediate any changes in either the survival rate or morphology”, the IC50 (C. albicans JCM1542 [1]; [4]) is reported as greater than 30 µM and the IC50 [2, 5] is reported as greater than 30 µM.

With `CCCC(=O)NCc1ccc(NC(=O)CCC)cc1` [compound 11] the “antifungal activity / inhibition of budding against C. albicans (in words)” value (C. albicans JCM1542 [1]; C. albicans JCM1542) was “did not mediate any changes in either the survival rate or morphology”, the IC50 (C. albicans JCM1542 [1]; [4]) was greater than 30 µM and the IC50 [2, 5] was greater than 30 µM.

In the case of `CC(C)=CCC/C(C)=C/CC/C(C)=C/CO` [farnesol], the “growth form of C. albicans under hyphal growth conditions” value (C. albicans JCM1542 [3]; 3 µM, MOPS-RPMI) is reported as “the cells grew as yeast form”.

Work on oligomycin A yielded an IC50 (C. albicans JCM1542 [1]; read-out: IC50 against C. albicans JCM1542; MOPS-RPMI medium, 28°C, 24 h, OD600; standard deviation in parentheses, n = 3) of 3.1 µM.
